From patent US8969524B2, “FVIII peptides for immune tolerance induction and immunodiagnostics” (Baxter International Inc., priority 2010, dated 2015)

system: FVIII-specific T cell hybridomas (peptides presented by HLA-DRB1*1501); experiment: Peptide specificity of FVIII-specific T cell hybridomas (IL-2 release); format: cell-based, mouse; conditions: during Factor VIII replacement therapy or connected with acquired hemophilia
Source text: To better mimic the human MHC class II molecule for identifying FVIII peptides, a mouse model was developed for hemophilia A with a chimeric MHC class II molecule carrying a human HLA-DRB1*1501 specific binding site. This mouse was backcrossed to a mouse carrying a complete knock out of all murine MHC class II genes (Reipert et al., J. Thromb. Haemost. 7 Suppl. 1:92-97 (2009)). In this new transgenic mouse model, all CD4^+ T cell responses are driven by the human MHC class II molecule. This mouse model was used to identify FVIII peptides presented by HLA-DRB1*1501 that drive anti-FVIII immune responses in these mice.
Hemophilic HLA-DRB15 E17 mice: HLA-DRB1*1501^+/− E17^−/− mice as described in Reipert et al., J. Thromb. Haemost. 7 Suppl. 1:92-97 (2009). Mice were all male and aged 8 to 12 weeks at the beginning of the experiment.
Immunization with human recombinant FVIII: HLA-DRB1*1501^+/− E17^−/− mice received between 4 and 8 intravenous or subcutaneous doses of 0.2 μg or 1 μg human rFVIII at weekly intervals. rFVIII was diluted in the original formulation buffer or Dulbecco phosphate buffered saline containing calcium and magnesium (DPBS; Sigma Aldrich, St. Louis, Mo., USA).
Cell preparation: Spleens were obtained 3 to 7 days after the last immunization with rFVIII. Spleen cells were minced and passed through a 70 μm cell strainer (Becton Dickinson, Franklin Lakes, N.J.). Single cells were collected in culture medium: RPMI 1640 medium (Gibco, Invitrogen, Life Technologies, Carlsbad, Calif.) supplemented with 10% preselected fetal calf serum (FCS; Hyclone, Logan, Utah), 2 mM L-glutamine, 100 U/mL penicillin/streptomycin (both from Gibco), and 5×10^−5 M mercaptoethanol (Sigma-Aldrich). Erythrocytes were lysed using hypotonic buffer (pH 7.2) composed of 0.15 M ammonium chloride, 10 mM potassium bicarbonate (both from Merck, Darmstadt, Germany) and 0.1 mM ethylene-diaminetetraacetic acid (Sigma-Aldrich). Cells were washed and counted using a Coulter Counter Z1. […]

| Sequence | involvement in the immune response mounted against FVIII protein |
| --- | --- |
| AWPKMHTVNGYVNRSLPGLIG (listed as Homo sapiens) [FVIII^246-266] | involved in the immune response |
| QANRSPLPIAKVSSFPSIRPIYLT (listed as Homo sapiens) [FVIII^1401-1424] | involved in the immune response |
| TVVITLKNMASHPVSLHAVGV (listed as Homo sapiens) [FVIII^102-122] | involved in the immune response |
